Experimental data published in US20130302278A1, “USE OF TLR AGONISTS AND/OR TYPE 1 INTERFERONS TO ALLEVIATE TOXICITY OF TNF-R AGONIST THERAPEUTIC REGIMENS” (Immurx Inc., priority 2007, published 2013).

What was measured:
B16.F10 melanoma cells = experiment: Therapeutic vaccination against metastatic B16.F10 melanoma (lung metastases, survival)
Description: Therein, C57BL/6 mice were challenged with 10^5 metastatic B16.F10 melanoma cells intravenously. Four days later, mice were vaccinated with 100 μg of the tumor-associated antigen V, 100 μg CD40 FGK45, and 100 μg S-27609 in combinations as indicated. After 24 days, mice were killed, lungs were removed, and metastatic surface tumor nodules were enumerated with the aid of a dissecting microscope.
Mice were injected with 10^5 B16.F10 melanoma tumor cells intravenously to establish lung metastases. Four days later, naive or tumor-bearing mice were intravenously vaccinated with 100 μg V peptide, 100 μg anti-CD40, and 100 μg of the TLR7 agonist S-27609 in various combinations as indicated. Lungs were harvested approximately 20 days later, and metastases were enumerated with the aid of a dissection microscope. Alternatively, mice were monitored for survival over the next 90 days.
C57BL/6 mice were challenged with 10^5 metastatic B16.F10 melanoma cells intravenously. Four days later, mice were vaccinated with 100 μg of the tumor-associated antigen V, 100 μg CD40 FGK45, and 100 μg S-27609 in combinations as indicated. After 24 days, mice were killed, lungs were removed, and metastatic surface tumor nodules were enumerated with the aid of a dissecting microscope.

[1] = tested on: TRP2-specific CD8^+ T cells; experiment: Degranulation (CD107a) and expansion of CD8+ T cells in peripheral blood 7 days after immunization; assay type: in vivo, C57BL/6 mice; conditions: 7 days after i.v. immunization, 100 μg each, groups given with V peptide
Excerpt: Seven days later, mice were bled and cells were restimulated in vitro with TRP2(180-188) to assess the ability to produce IFN and translocate CD107a as described in “Methods.” Lymphocytes were identified by forward and side scatter and subsequently gated on all CD8^+ events. (A) Representative dot plots from vaccinated mice. The numbers in the upper right corners indicate the frequency of CD8^+ T cells that are positive for IFN and CD44 (top row) or IFN and CD107a (bottom row). (B) Percentage of peripheral blood lymphocytes expressing the CD8 antigen. P.001 by one-tailed ANOVA (C) Quantification of the percentages of CD8^+ cells that degranulated in response to peptide restimulation. In all cases, data presented are representative of at least 3 independent experiments. […] P.001 by one-tailed ANOVA.
Cells from lung, spleen, or peripheral blood (peripheral blood lymphocytes [PBLs]) were incubated with 1 μg/mL Ova(257-264) or TRP2(180-188) peptide plus 10 U/mL IL-2 and 3 μg/mL brefeldin A in complete medium at 37° C. for 5 to 18 hours. […] The percentage of IFN^+ cells was calculated by subtracting the background observed with the irrelevant peptide control.

[2] = Serum transaminase (ALT, AST) analysis of hepatocellular injury; assay type: in vivo, mice; conditions: 100 μg each i.v., 24 to 72 hours
Description: (§1) FIG. 5 This figure contains experiments that reveal that the hepatic toxicity associated with CD40 monotherapy is reversed with TLR7 agonism. FIG. 5(A, B) contain kinetic analysis of serum transaminases. Mice were treated with PBS, 100 μg CD40, 100 μg TLR7*, or both intravenously. Serum was isolated at various time points afterward, and serum levels of alanine transaminase (A) or aspartate transaminase (B) were measured as described. Data are representative of 3 independent experiments, with n=3 to 8 mice per group, per time point. (C-F) Histologic analysis of livers treated with PBS (C), […] CD40 (D), 100 μg TLR7* (E), or 100 μg CD40 and 100 μg TLR7*(F) for 48 hours. (G) Semiquantitative assessment of histopathologic changes in livers from mice treated as above for 48 hours. […]
(§2) Hepatocellular injury was biochemically assessed by measuring serum liver enzyme activity. […] Serum was harvested 24 to 72 hours later and levels of alanine aminotransferase (ALT) and aspartate aminotransferase (AST) were determined by standard clinical assays at the National Jewish Medical Center Core Lab (Denver, Colo.). For histologic analysis, livers from mice treated as above were fixed in buffered formalin, embedded in paraffin, sectioned, and stained with hematoxylin and eosin (H&E) prior to being coded and scored on a 0 to 4 scale in a blinded fashion. […]

memory CD8^+ T cells = experiment: Memory CD8+ T-cell function (intracellular cytokine staining) 60+ days after vaccination; assay type: in vivo, mice; conditions: spleen and lung
Description: In the experiments depicted in FIG. 2, mice were immunized with 100 μg each of V peptide, CD40, and S-27609 in combinations as indicated. Memory CD8S functionality was assessed 65 days later. (A) Representative dot plots of IFN secretion by memory CD8^+ T cells isolated from spleens and lungs of vaccinated mice. Dot plots are gated on live CD8^+ cells, and numbers indicate the percentage of cells positive for both IFN and CD44. (B) Memory CD8^+ T-cell cytolytic activity was assessed by performing an in vivo cytotoxicity assay. Numbers reflect the percentage of antigen-specific lysis. (C,D) Quantification of relative and absolute numbers of memory CD8 cells expressing IFN in the spleen (C) and lung (D). Absolute numbers of positive cells were determined by multiplying the relative percentage of each cell population by the total number of cells isolated from each tissue. (E) Quantification of the in vivo cytotoxicity assay presented in panel B. P.001 by one-tailed ANOVA. […] Cells from panel F were analyzed for the ability to produce TNF and IL-2. […]
Mice were immunized with 100 μg each of V peptide, CD40, and S-27609 in combinations as indicated. Memory CD8 functionality was assessed 65 days later. […] (B) Memory CD8^+ T-cell cytolytic activity was assessed by performing an in vivo cytotoxicity assay. […] (E) Quantification of the in vivo cytotoxicity assay presented in panel B. P.001 by one-tailed ANOVA. […]

[3] = Macroscopic and histologic analysis of livers (H&E, 0 to 4 score); assay type: in vivo, mice
Description: as §1, §2

Compound	control of tumor progression (number of lung tumor nodules) (B16.F10 melanoma cells; 10^5 B16.F10 i.v., treatment 4 days later, lungs at 24 days)	mean survival time (B16.F10 melanoma cells; all mice succumbed to lung failure)	CD8^+ cells expressing CD107a (degranulation after peptide restimulation) [1]	plasma levels of ALT and AST [2]	persisting antigen-specific CD8^+ effector population (memory CD8^+ T cells)	histologic analysis of liver ([3]; 48 hours after 100 μg each i.v.)	semiquantitative score of histologic liver damage ([3]; 48 hours, P=0.026, TLR7* added to CD40)
SIYDFFVWL [tumor antigen]	ineffective in controlling tumor progression	29 days					
Cc1nc2c(N)nc3ccccc3c2n1CC(C)(C)O [TLR7*]			approximately 2%	no effect on enzyme levels	failed to induce a significant pool	minor inflammation without any observable coagulative necrosis	significantly reduces liver toxicity associated with CD40 monotherapy
